From patent publication US20130197073A1, “HYPOCHOLESTEROLEMIC, ANTI-INFLAMMATORY AND ANTIEPILEPTIC NEUROPROTECTIVE COMPOUND” (NEURON BIOPHARMA, S.A., priority 2010, published 2013)

Assays:
[1] = system: zebrafish (Danio rerio, AB strain) embryos; assay: Zebrafish embryo cardiotoxicity, heart rate; settings: 72 hpt
[2] = system: zebrafish (Danio rerio, AB strain) embryos; assay: Zebrafish embryo acute toxicity, percentage of healthy larvae; settings: mean±SD
[3] = system: zebrafish (Danio rerio, AB strain) embryos; assay: Zebrafish embryo acute toxicity, mortality (OECD C.15); assay type: in vivo; settings: for Mortality (dead larvae with respect to the total): 3 days
Protocol: 30 control animals treated with dilution water and with daily replacement until the end of the assay.
30 animals treated with compound NST0060 (3 embryos for every ten replicates) diluted in dilution water at doses between 1 and 100 mg/Kg and with daily replacement of the substance during the days that the assay lasted.
After the time of exposure to the substances under study, the mortality record of the larvae was determined, results being shown in Table 2.

[4] = system: caspase 3/7; assay: Inhibition of activation of caspase 3/7 in camptothecin cell model of apoptosis; assay type: cell-based, human; settings: 50 μM, positive control; 50 μM CPT 6 hours
Protocol: (§1) The assay was performed on human neuroblastoma SK-N-MC cells in culture, maintained as described in section 2.1.
The induction of apoptosis on the cells in culture was performed with camptothecin (CPT), which triggers the activation of cell apoptosis. Apoptosis was quantified by means of the measurement of the activation of effector caspases, caspase 3 or caspase 7, for which a kit for the fluorometric detection of active caspase 3/7 (Apo-ONE® Homogeneous Caspase-3/7, Promega) was used. Active caspases 3 or 7 of the cells cause the rupture of a substrate, which leads to fluorescence emission, which is read by means of a fluorometer. The effect of the pretreatment of compound NST0060 at 10 and 40 μM on the activation of caspase 3/7 produced by 50 μM of camptothecin (CPT) in the SK-N-MC cells was thus analyzed. These cells, not exceeding 15 passages, were seeded on 96-well plates treated for adherent cells with a cell concentration of 5×10^4 cells/well; 3 wells of the plate were seeded for each assay condition.
After 24 hours of cell incubation (at 37° C. and 5% CO2), the pretreatment with NST0060 at 10 and 40 μM was performed.
The cells were incubated (at 37° C. and 5% CO2) with these treatments for 6 hours, after which cell lysis buffer and the caspase substrate at the concentrations specified by the manufacturer were added; it was incubated at room temperature for 30 minutes and then frozen at −20° C. overnight. Fluorescence was measured the next day (499/521 nm, Exci/Emi).

[5] = system: human neuroblastoma SK-N-MC cells; assay: Inhibition of DNA fragmentation (sub-G1, flow cytometry) in camptothecin cell model of apoptosis; assay type: cell-based; settings: 50 μM, positive control; 50 μM CPT
Protocol: as §1
The inhibition caused by compound NST0060 with respect to apoptosis caused by treatment with camptothecin (CPT), which inhibits the topoisomerase I enzyme, prevents DNA duplication and triggers apoptotic cell death. These cells, not exceeding 15 passages, were seeded on 6-well plates treated for adherent cells with a cell concentration of 7×10^5 cells/well; 2 wells of the plate were seeded for each assay condition.
After 24 hours of cell incubation (at 37° C. and 5% CO2), cell pretreatment was performed with 10 and 40 μM of NST0060 for 24 hours; they were subsequently treated with 50 μM CPT for 6 hours. Furthermore, Z-VAD-fmk at 50 μM was used as positive control for inhibition.
After treatment, the cells were collected along with their culture medium and centrifuged at 300×g for 5 minutes. The medium was removed, a washing was performed with PBS and the cells were fixed for 2 minutes with 500 μl of 70% ethanol at −20° C. […] After this time they were analyzed by flow cytometry, comparing the fluorescence of propidium iodide with respect to the amount of DNA. The percentage of apoptosis was measured on the sub-G1 region of each of the conditions.

Compound	heart rate with respect to the controls ([1]; dose of 3 mg/Kg)	heart rate with respect to the controls ([1]; dose of 10 mg/Kg)	percentage of healthy larvae ([2]; dose of 1 mg/Kg) [%]	percentage of healthy larvae ([2]; dose of 3 mg/Kg) [%]	Mortality (dead larvae with respect to the total) ([3]; Dose 1 mg/kg)	Mortality (dead larvae with respect to the total) ([3]; Dose 3 mg/kg)	Mortality (dead larvae with respect to the total) ([3]; Dose 10 mg/kg)	Mortality (dead larvae with respect to the total) ([3]; Dose 30 mg/kg)	Mortality (dead larvae with respect to the total) ([3]; Dose 100 mg/kg)	deaths out of 30 animals ([3]; dose of 10 mg/Kg, 72 h)	inhibition of the activation of caspase 3/7 [4]	inhibition of apoptosis (DNA fragmentation) caused by CPT [5]
CCC(C)(C)C(=O)O[C@H]1C[C@@H](C)C=C2C=C[C@H](C)[C@H](CC[C@@H]3C[C@@H](O)CC(=O)O3)[C@H]21 [simvastatin, reference compound]	significant decrease of the heart rate	significant decrease of the heart rate	50.0±22.4	50.0±22.4	0/30	0/30	16/30	30/30	30/30	16		
Z-VAD-fmk [reference compound]											completely inhibited	specifically inhibited apoptosis caused by CPT
